Results from patent US20240208909A1, “SUBSTITUTED QUINOLINE DERIVATIVES HAVING SOS1 INHIBITION ACTIVITIES AND USES THEREOF” (Accutar Biotechnology Inc., priority 2022, published 2024).

Columns and labels:
[1] = system: Phospho-ERK1/2 in DLD1 cells; assay: Phospho-ERK1/2 expression inhibition in DLD1 cells; assay type: cell-based; settings: Homo sapiens, DLD-1, 4 hours, read-out: DLD1 pERK IC50
Summary of the method: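 DLD1 cells (15,000/well) were plated overnight, then exposed to compounds for 4 h at 37 °C. Cells were formaldehyde-fixed and methanol-permeabilized. Phospho-ERK1/2 was detected in-cell with rabbit anti-phospho-ERK1/2 and an IRDye 800CW secondary antibody, imaged on a LI-COR Odyssey.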

SOS1/KRAS-G12D = SOS1/KRAS-G12D (Homo sapiens (Human), UniProt Q07889); assay: SOS1/KRAS-G12D binding inhibition assay (AlphaScreen); settings: GST-SOS1 and 6*His KRAS-G12D, read-out: KrasG12D/SOS1 binding IC50
Chain of SOS1/KRAS-G12D (Q07889 564-1049 limits assumed): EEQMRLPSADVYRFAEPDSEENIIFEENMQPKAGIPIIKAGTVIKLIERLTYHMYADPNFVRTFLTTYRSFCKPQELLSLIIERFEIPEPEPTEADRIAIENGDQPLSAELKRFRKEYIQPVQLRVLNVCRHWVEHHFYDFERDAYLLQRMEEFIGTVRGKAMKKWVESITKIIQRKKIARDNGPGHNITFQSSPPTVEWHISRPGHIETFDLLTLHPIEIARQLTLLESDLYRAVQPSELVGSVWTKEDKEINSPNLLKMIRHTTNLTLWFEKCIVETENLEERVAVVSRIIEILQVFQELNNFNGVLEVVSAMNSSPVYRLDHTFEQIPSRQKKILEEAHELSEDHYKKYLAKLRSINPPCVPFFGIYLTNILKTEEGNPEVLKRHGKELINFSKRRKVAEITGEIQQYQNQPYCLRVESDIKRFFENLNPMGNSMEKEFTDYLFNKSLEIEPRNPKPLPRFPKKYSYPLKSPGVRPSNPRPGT
Summary of the method: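 GST-SOS1 (5 nM) pre-incubated 30 min with His6-KRAS-G12D (50 nM) in HEPES pH 7.4, NaCl, DTT, MgCl2, Tween-20, BSA; compound in 2% DMSO then added for 30 min at 4° C. GSH donor and Ni-NTA acceptor AlphaScreen beads, 2 h at 4° C; background-corrected % inhibition versus DMSO, IC50 by variable-slope nonlinear regression.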

K562 cells = assay: Cell growth inhibition of K562 cells (CellTiter-Glo); assay type: cell-based; settings: Homo sapiens, 120 h, 5 days

Compound	IC50 [1] [µM]	IC50 (SOS1/KRAS-G12D) [µM]	GI50 (K562 cells) [µM]
Cc1c([C@@H](C)Nc2ccnc3ccc(N4CCN(C(=O)C5CCCO5)CC4)cc23)cccc1C(F)(F)F (stereo partly drawn) [Compound 53, (4-(4-(((R)-1-(2-methyl-3-(trifluoromethyl)phenyl)ethyl)amino)quinolin-6-yl)piperazin-1-yl)(tetrahydrofuran-2-yl)methanone]	> 0.5	0.01 to 0.1	0.1 to 0.5
COC(=O)N1CC[C@](OC)(c2ccc3nccc(N[C@H](C)c4cccc(C(F)F)c4F)c3c2)C1 [Compound 89, methyl (S)-3-(4-(((R)-1-(3-(difluoromethyl)-2-fluorophenyl)ethyl)amino)quinolin-6-yl)-3-methoxypyrrolidine-1-carboxylate]	> 0.5	≤ 0.01	≤ 0.1
C[C@@H](Nc1ccnc2ccc(N3CCN(C(=O)C4COC4)CC3)cc12)c1cccc(C(F)F)c1F [Compound 16, (R)-(4-(4-((1-(3-(difluoromethyl)-2-fluorophenyl)ethyl)amino)quinolin-6-yl)piperazin-1-yl)(oxetan-3-yl)methanone]	≤ 0.15	≤ 0.01	≤ 0.1
Cc1cc(N[C@H](C)c2cccc(C(F)(F)F)c2C)c2cc(N3CCNCC3)ccc2n1 [Compound 1, (R)-2-methyl-N-(1-(2-methyl-3-(trifluoromethyl)phenyl)ethyl)-6-(piperazin-1-yl)quinolin-4-amine]	> 0.5	0.01 to 0.1	> 0.5
CC(=O)N1CCN(c2ccc3nccc(N[C@H](C)c4cccc(C(F)(F)F)c4C)c3c2)CC1 [Compound 27, (R)-1-(4-(4-((1-(2-methyl-3-(trifluoromethyl)phenyl)ethyl)amino)quinolin-6-yl)piperazin-1-yl)ethan-1-one]	> 0.5	0.01 to 0.1	> 0.5
CC(=O)N1CCC(O)(c2ccc3nccc(N[C@H](C)c4cccc(C(F)F)c4F)c3c2)CC1 [Compound 40, (R)-1-(4-(4-((1-(3-(difluoromethyl)-2-fluorophenyl)ethyl)amino)quinolin-6-yl)-4-hydroxypiperidin-1-yl)ethan-1-one]	0.15 to 0.5	≤ 0.01	≤ 0.1
Cc1c([C@@H](C)Nc2ccnc3ccc(N4CCN(C(=O)C(C)C)CC4)cc23)cccc1C(F)(F)F [Compound 46, (R)-2-methyl-1-(4-(4-((1-(2-methyl-3-(trifluoromethyl)phenyl)ethyl)amino)quinolin-6-yl)piperazin-1-yl)propan-1-one]	0.15 to 0.5	0.01 to 0.1	0.1 to 0.5
C[C@@H](Nc1ccnc2ccc(N3CC[C@H](O)C3)cc12)c1cccc(C(F)F)c1F [Compound 43, (S)-1-(4-(((R)-1-(3-(difluoromethyl)-2-fluorophenyl)ethyl)amino)quinolin-6-yl)pyrrolidin-3-ol]	0.15 to 0.5	≤ 0.01	0.1 to 0.5
CC(=O)N1CCC(c2ccc3nccc(N[C@H](C)c4cccc(C(F)F)c4F)c3c2)CC1 [Compound 13, (R)-1-(4-(4-((1-(3-(difluoromethyl)-2-fluorophenyl)ethyl)amino)quinolin-6-yl)piperidin-1-yl)ethan-1-one]	0.15 to 0.5	≤ 0.01	≤ 0.1
CO[C@@]1(c2ccc3nccc(N[C@H](C)c4cccc(C(F)F)c4F)c3c2)CCN(C(=O)C2CC2)C1 [Compound 95, cyclopropyl((R)-3-(4-(((R)-1-(3-(difluoromethyl)-2-fluorophenyl)ethyl)amino)quinolin-6-yl)-3-methoxypyrrolidin-1-yl)methanone]	> 0.5	≤ 0.01	0.1 to 0.5
COc1cc2nccc(N[C@H](C)c3cccc(C(F)(F)F)c3C)c2cc1N1CCNCC1 [Compound 55, (R)-7-methoxy-N-(1-(2-methyl-3-(trifluoromethyl)phenyl)ethyl)-6-(piperazin-1-yl)quinolin-4-amine]	> 0.5	0.01 to 0.1	> 0.5
Cc1c([C@@H](C)Nc2ccnc3ccc(N4CCN(c5nccs5)CC4)cc23)cccc1C(F)(F)F [Compound 34, (R)-N-(1-(2-methyl-3-(trifluoromethyl)phenyl)ethyl)-6-(4-(thiazol-2-yl)piperazin-1-yl)quinolin-4-amine]	> 0.5	> 0.1	0.1 to 0.5
C[C@@H](Nc1ccnc2ccc(N3CC[C@@H](N)C3)cc12)c1cccc(C(F)F)c1F [Compound 9, 6-((R)-3-aminopyrrolidin-1-yl)-N-((R)-1-(3-(difluoromethyl)-2-fluorophenyl)ethyl)quinolin-4-amine]	0.15 to 0.5	≤ 0.01	0.1 to 0.5
Cc1c([C@@H](C)Nc2ccnc3ccc(N4CCCNCC4)cc23)cccc1C(F)(F)F [Compound 63, (R)-6-(1,4-diazepan-1-yl)-N-(1-(2-methyl-3-(trifluoromethyl)phenyl)ethyl)quinolin-4-amine]	> 0.5	0.01 to 0.1	> 0.5
Cc1c([C@@H](C)Nc2ccnc3ccc(N4CCN(CC(F)(F)F)CC4)cc23)cccc1C(F)(F)F [Compound 52, (R)-N-(1-(2-methyl-3-(trifluoromethyl)phenyl)ethyl)-6-(4-(2,2,2-trifluoroethyl)piperazin-1-yl)quinolin-4-amine]	> 0.5	> 0.1	> 0.5
COC1(c2ccc3nccc(N[C@H](C)c4cccc(C(F)(F)F)c4C)c3c2)CCN(C(=O)CF)CC1 [Compound 78, (R)-2-fluoro-1-(4-methoxy-4-(4-((1-(2-methyl-3-(trifluoromethyl)phenyl)ethyl)amino)quinolin-6-yl)piperidin-1-yl)ethan-1-one]	0.15 to 0.5	≤ 0.01	≤ 0.1
CC(=O)N1CCC(F)(c2ccc3nccc(NC(C)c4cccc(C(F)F)c4F)c3c2)CC1 (stereo not drawn) [Compound 84, 1-(4-(4-((1-(3-(difluoromethyl)-2-fluorophenyl)ethyl)amino)quinolin-6-yl)-4-fluoropiperidin-1-yl)ethan-1-one]	0.15 to 0.5	≤ 0.01	≤ 0.1
Cc1c([C@@H](C)Nc2ccnc3ccc(N4CC[C@@H](N)C4)cc23)cccc1C(F)(F)F [Compound 20, 6-((R)-3-aminopyrrolidin-1-yl)-N-((R)-1-(2-methyl-3-(trifluoromethyl)phenyl)ethyl)quinolin-4-amine]	> 0.5	> 0.1	> 0.5
Cc1c([C@@H](C)Nc2ccnc3ccc(N4CC5(CCN(C)C5=O)C4)cc23)cccc1C(F)(F)F [Compound 21, (R)-6-methyl-2-(4-((1-(2-methyl-3-(trifluoromethyl)phenyl)ethyl)amino)quinolin-6-yl)-2,6-diazaspiro[3.4]octan-5-one]	> 0.5	> 0.1	> 0.5
CC(=O)N1CCC(F)(c2ccc3nccc(N[C@H](C)c4cccc(C(F)F)c4F)c3c2)CC1 [Compound 41, (R)-1-(4-(4-((1-(3-(difluoromethyl)-2-fluorophenyl)ethyl)amino)quinolin-6-yl)-4-fluoropiperidin-1-yl)ethan-1-one]	0.15 to 0.5	≤ 0.01	≤ 0.1
Cc1c([C@@H](C)Nc2ccnc3ccc(N4CCC5(CCN(C)C5=O)CC4)cc23)cccc1C(F)(F)F [Compound 23, (R)-2-methyl-8-(4-((1-(2-methyl-3-(trifluoromethyl)phenyl)ethyl)amino)quinolin-6-yl)-2,8-diazaspiro[4.5]decan-1-one]	> 0.5	0.01 to 0.1	0.1 to 0.5
COC(=O)N1CC[C@@](OC)(c2ccc3nccc(N[C@H](C)c4cccc(C(F)F)c4F)c3c2)C1 [Compound 90, methyl (R)-3-(4-(((R)-1-(3-(difluoromethyl)-2-fluorophenyl)ethyl)amino)quinolin-6-yl)-3-methoxypyrrolidine-1-carboxylate]	> 0.5	0.01 to 0.1	0.1 to 0.5
Cc1c([C@@H](C)Nc2ccnc3ccc(N4CCNC5(CC5)C4)cc23)cccc1C(F)(F)F [Compound 69, (R)-N-(1-(2-methyl-3-(trifluoromethyl)phenyl)ethyl)-6-(4,7-diazaspiro[2.5]octan-7-yl)quinolin-4-amine]	> 0.5	0.01 to 0.1	0.1 to 0.5
Cc1c([C@@H](C)Nc2ccnc3ccc(N4C[C@@H](C)NC[C@@H]4C)cc23)cccc1C(F)(F)F [Compound 56, 6-((2S,5R)-2,5-dimethylpiperazin-1-yl)-N-((R)-1-(2-methyl-3-(trifluoromethyl)phenyl)ethyl)quinolin-4-amine]	> 0.5	0.01 to 0.1	0.1 to 0.5
CO[C@]1(c2ccc3nccc(N[C@H](C)c4cccc(C(F)F)c4F)c3c2)CCN(C(=O)C(C)C)C1 [Compound 92, 1-((S)-3-(4-(((R)-1-(3-(difluoromethyl)-2-fluorophenyl)ethyl)amino)quinolin-6-yl)-3-methoxypyrrolidin-1-yl)-2-methylpropan-1-one]	≤ 0.15	≤ 0.01	≤ 0.1
COc1cc2nccc(N[C@H](C)c3cccc(C(F)F)c3F)c2cc1C1(OC)CCN(C(C)=O)CC1 [Compound 73, (R)-1-(4-(4-((1-(3-(difluoromethyl)-2-fluorophenyl)ethyl)amino)-7-methoxyquinolin-6-yl)-4-methoxypiperidin-1-yl)ethan-1-one]	> 0.5	≤ 0.01	> 0.5
